melting point [°C]	SMILES
46 to 48	ClCc1coc(-c2ccccc2Br)n1
93 to 95	COc1ccccc1-c1cc(N)on1
109 to 111	Cc1ccccc1-n1nc(-c2ccccc2)cc1N
120 to 122	CC(C(=O)O)c1ccc2ccccc2c1 (centres undefined)
134 to 136	Nc1nc2ccc(C(F)(F)F)cc2[nH]1
62 to 64	Nc1cc(Cl)ccc1Sc1ccccc1
79 to 81	O=C1CCc2ccc(Cl)cc21
146 to 148	O=Cc1ccc(-c2nn(-c3ccccc3)cc2C=O)o1
89 to 91	Cc1cc(C(N)=S)ccc1F
199 to 201	Nc1cccc(-n2cnnc2)c1
209 to 211	O=C(O)COc1ccc(Cl)c2cccnc12
178 to 180	O=C(O)c1cnc(Cc2ccc(F)cc2)s1
184 to 186	Cn1cnc(-c2cccc(N)c2)n1
179 to 181	O=C(O)c1ccn(-c2c(F)cccc2F)n1
133 to 135	COc1cccc2sc(NC(=O)OCC(F)(F)F)nc12
116 to 118	Cc1ccc(-c2n[nH]cc2Br)cc1C
179 to 181	Cc1cc(COc2ccc(C=O)cc2)oc1C(=O)O
121 to 123	COc1ccc(CCC(=O)O)cc1N
180 to 184	Cc1ccc2c(c1)C(=O)C(=O)N2
184 to 186	O=C1Nc2cc(F)ccc2C1=O
151 to 153	Cc1ccc(C(=O)Nc2ccccc2)cc1N

melting point [°C]	SMILES
139 to 141	Cc1ccc(N)cc1-n1nnnc1C
219 to 221	Cc1nnc(S)n1-c1cccc(N)c1
127 to 131	CN(Cc1ccccc1)S(=O)(=O)c1ccc(N)cc1
185 to 187	O=C(O)C(Cc1c[nH]c2ccccc12)NS(=O)(=O)c1ccc(Cl)c(C(F)(F)F)c1 (centres undefined)
194 to 196	O=c1ccc2c(Cl)ccc(Cl)c2[nH]1
161 to 163	N#Cc1cccc(-n2ccnc2)c1
139 to 141	COCc1nnc(-c2cccc(C(=O)O)c2)o1
158 to 160	NNc1ccncc1Cl
63 to 65	O=C(c1ccc(Br)cc1)c1ccco1
184 to 186	O=C(O)c1ccc(SCc2ccccc2)cc1
170 to 172	O=C(Nc1cccc(-c2nnco2)c1)OCC(F)(F)F
114 to 116	CSc1cccc(Cl)c1C#N
146 to 148	O=C(O)c1ccc(Oc2cccc(F)c2)cc1
223 to 225	Cc1cccc(NS(=O)(=O)c2ccc(N)cc2)n1
167 to 169	Cn1ccnc1-c1cc(N)[nH]n1
51 to 53	Clc1nc(-c2ccccc2)ns1
175 to 177	COc1ccc(NS(=O)(=O)c2ccc3oc(S)nc3c2)cc1
101 to 103	N=C(NN)c1cc(F)cc(F)c1
93 to 95	NCc1cccc(N2CCOC2=O)c1
160 to 162	Cc1cccc(NC2=NC(=O)CS2)c1
99 to 101	O=C(Cc1ccccn1)c1ccc(Cl)cc1

melting point [°C]	SMILES
80 to 82	Nc1cc(C2CCCC2)nn1-c1ccccc1
137 to 139	Cc1cc(OCC(N)=O)ccc1N
103 to 105	COc1cccc(C(N)=NO)c1
192 to 194	Nc1ccc(-c2nc(C3CC3)n[nH]2)cc1
137 to 139	CCc1nnc(-c2ccc(N)cc2)o1
154 to 156	COc1cccc(NC(=O)CC#N)c1
269 to 271	O=c1nncc2[nH]cccc1-2
112 to 114	CC(=O)c1cccc(NC(=O)CCl)c1
109 to 111	Nc1nc(-c2ccco2)cs1
127 to 129	CCOc1ccc(OCc2ccc(C(=O)NN)cc2)cc1
209 to 211	O=C(O)c1ccc(OCc2ccccn2)cc1
253 to 255	O=C(O)c1n[nH]c2ccc([N+](=O)[O-])cc12
267 to 269	O=C1NC(=O)C(Cc2ccc(O)cc2)N1 (centres undefined)
186 to 188	O=C(O)CSc1ncnc2scc(-c3ccccc3)c12
107 to 109	O=Cc1ccc(-c2ccncc2)cc1F
248 to 250	O=C(O)c1nn(-c2ccc(Cl)cc2)cc1O
158 to 160	NC(=O)c1c(-c2ccc(C(F)(F)F)cc2)csc1N
181 to 183	N#Cc1ccccc1COc1cccc(C(=O)O)c1
95 to 97	O=S(=O)(Cl)c1ccc(OCc2ccccc2)cc1
66 to 68	Nc1cnccc1-c1cccc(F)c1

Second part, the compound before the results:

SMILES	melting point [°C]
FC(F)(F)c1ccc(C2CCCCN2)cc1 (centres undefined)	36 to 38
O=c1[nH]nc2cncc(Cl)n12	169 to 171
CS(=O)(=O)c1ccc(C2CNCCO2)cc1 (centres undefined)	109 to 111
Nc1sccc1C(=O)NC1CC1	144 to 146
Cc1ccc(S(N)(=O)=O)s1	118 to 120
O=C(O)C=Cc1ccc(OC(F)F)cc1	182 to 184
CC(SCC(=O)Nc1cccc(Br)c1)C(=O)O (centres undefined)	106 to 108
COc1ccc(CCNC(C)=O)cc1S(=O)(=O)Cl	76 to 78
Cc1ccc2[nH]c3c(c2c1)CCCC3=O	185 to 187
Brc1cc[nH]n1	74 to 76
CC(C)(C)OC(=O)N1CC=C(c2ccc(O)cc2)CC1	134 to 136
Cc1ccc(S(N)(=O)=O)cc1NC(=O)CCl	179 to 181
COc1ccc(CCC(C)(N)C(=O)O)cc1 (centres undefined)	303 to 305
CC1C=CC2C(=O)N(CC(F)(F)F)C(=O)C2C1C(=O)O (centres undefined)	166 to 168
O=C(O)c1cnc(C2CC2)s1	187 to 189
Cc1cc(OC(F)F)c(C(=O)O)s1	155 to 157
NS(=O)(=O)c1cnc(Cl)s1	128 to 130
O=C(O)CCCCCc1cccs1	43 to 45
O=C1NC(=O)N2CCCC12 (centres undefined)	149 to 151
O=C(O)CNc1ccc(Cl)cc1	142 to 144
CC(C)CC(CNC(=O)OC(C)(C)C)C(=O)O (centres undefined)	76 to 78

SMILES	melting point [°C]
COc1ccc(S(=O)(=O)CCC(=O)O)cc1OC	139 to 141
O=C(O)c1c[nH]c2ccc(Br)cc12	238 to 240
CCOC(=O)Cc1nnc(S)n1Cc1ccco1	< 17
CC(C)(C)OC(=O)N1CC(OCC(=O)O)C1	93 to 95
Clc1cc2nncn2cn1	111 to 113
CCOC(=O)c1nnc(N)s1	197 to 199
CC(=O)Nc1ccccc1C=O	67 to 69
N#Cc1ccc(NC(=O)OCC(F)(F)F)cc1	143 to 145
COC(=O)c1ncccc1O	76 to 78
COc1ccc(C(=O)O)cc1OC(F)F	179 to 181
COc1cc(CCC(=O)O)ccc1OCC(F)(F)F	103 to 105
O=C(O)CCNC(=O)NC1CCCCC1	163 to 165
CCOC(C)c1ncc(C(=O)O)s1 (centres undefined)	112 to 114
O=C(O)C1CSC(c2ccc(Cl)s2)N1 (centres undefined)	149 to 151
CC(N)c1nn[nH]n1 (centres undefined)	263 to 265
CC(C)(C)OC(=O)N1CCN(CC(=O)O)C(=O)C1	149 to 151
COc1cc(CN)cc(OC)c1O	149 to 151
NC(=O)C1CNc2ccccc2C1 (centres undefined)	121 to 123
O=C1NC(=O)c2cc(Cl)c(Cl)cc21	217 to 219
COc1ccc2c(c1)NC(=O)C(C)O2 (centres undefined)	138 to 140
O=C(O)Cc1coc2cc(O)ccc12	127 to 129

SMILES	melting point [°C]
O=C1CN(C(=O)CCl)c2ccccc2N1	114 to 119
CC1CC(C)CN(c2nnc(S)n2Cc2ccco2)C1 (centres undefined)	119 to 121
Cn1cnnc1S(=O)(=O)O	170 to 172
CCOC(=O)c1nc2cc(Cl)ncn2n1	194 to 196
COc1ccc(C(=O)CCl)c(OC)c1	48 to 50
CC(C)(C)N1C(=O)CNC1=O	84 to 86
CCOC(=O)c1sc2cc(Cl)ccc2c1Cl	75 to 77
Cc1cc(=O)oc2ccc(OCC(=O)O)cc12	153 to 155
O=C(CCl)c1ccc(Br)cc1	119 to 121
CC1(C)C2CCC1(CS(=O)(=O)F)C(=O)C2 (centres undefined)	79 to 81
CNS(=O)(=O)c1ccc(NCCOC)c(N)c1	111 to 113
CSCCC(NC(N)=O)C(=O)O (centres undefined)	141 to 143
O=Cc1cc(Br)c2c(c1)OCCO2	99 to 101
OC(c1ccccc1)C1CCCCN1 (centres undefined)	136 to 138
CCOc1ccc(Cl)cc1C(C)=O	79 to 81
CC(=O)NNC(=O)C(C)Cl (centres undefined)	156 to 158
CCC(=O)N1CCc2cc(C(=O)CCl)ccc21	201 to 203
O=C(O)c1sc(C2CC2)nc1C(F)(F)F	146 to 148
Cc1nn(C)c(C)c1-c1cc(C(=O)O)[nH]n1	281 to 283
NC(C(=O)O)c1ccc(Br)cc1 (centres undefined)	249 to 251
Nc1cc(Cl)ccc1N1CCC(CO)CC1	144 to 146

SMILES	melting point [°C]
O=C1CCS(=O)(=O)c2cc(F)c(F)cc21	149 to 151
CCC(=O)c1ccc2c(c1)CC(=O)N2C	205 to 207
CCN(CC)C(=O)c1sc2nc(CCl)[nH]c(=O)c2c1C	174 to 176
Cc1nc2ccc(Br)cc2c(Cl)c1C	99 to 101
O=C(O)c1ccccc1CSc1nnc[nH]1	177 to 179
Cc1nn2cccnc2c1C(=O)O	176 to 178
C=CS(=O)(=O)c1ccc([N+](=O)[O-])cc1	112 to 114
COc1cc(C=O)ccc1OC(=O)OC(C)(C)C	89 to 91
Cc1cc(C=O)c(C)n1-c1ccc(Cl)c(C(F)(F)F)c1	88 to 90
Cc1cc(C(=O)O)c(N)c([N+](=O)[O-])c1	249 to 251
O=C1Cc2cc(S(=O)(=O)Cl)c(Cl)cc2N1	185 to 187
O=C(O)C1CCN(S(=O)(=O)c2ccc3c(c2)CCC3)CC1	170 to 172
CCC1CCC2(CC1)NC(=O)N(CC(=O)O)C2=O (centres undefined)	214 to 216
Cc1cccc2c3c([nH]c12)C(N)CCC3 (centres undefined)	130 to 132
CC(C)(C)OC(=O)NC1(C(=O)O)Cc2ccccc2C1	162 to 164
COc1ccccc1N1CC(C(=O)O)CC1=O (centres undefined)	139 to 141
O=[N+]([O-])CC(c1ccco1)c1c(-c2ccccc2)[nH]c2ccccc12 (centres undefined)	127 to 129
Cc1nc2cc(=O)[nH]n2c(C)c1CC(=O)O	285 to 287
CC(=O)c1ccc(OC2CCCCC2)cc1	74 to 76

From a melting point compilation (Tetko et al.)
